Consider twelve molecules from patent publication US20260200920A1, “SUBSTITUTED AMINOPYRIDINE COMPOUNDS FOR USE AS AKT1 INHIBITORS” (Atavistik Bio, Inc., priority 2023, published 2026).

Experiment [1] addresses T1, human recombinant kinase full-length AKT1 E17K (Homo sapiens, UniProt P31749, E17K).
T1 construct: Purified human recombinant kinase full-length AKT1 E17K was expressed in insect cells; made in house; host or cells: insect cells
In words: AKT1 E17K kinase assay (TR-FRET, Lance). It counts as biochemical. The conditions noted are these: 0.6 nM AKT1 E17K, 50 nM Ulight-CREBtide, either 50 μM ATP or 2 mM ATP, 60 min at RT. On the procedure: AKT1 E17K kinase assay: Inhibitory effects of compounds on AKT1 E17K were undertaken in a 10-pt dose response kinase activity assay measuring phospho-peptide product formation based on TR-FRET signal as described in the following paragraph.
(§1) Purified human recombinant kinase full-length AKT1 E17K was expressed in insect cells and activated in vitro by PDPK1. Ulight™-CREBtide (PerkinElmer, catalog number TRF0107) was used as the peptide substrate. The reaction buffer consisted of 50 mM HEPES pH 7.5, 10 mM MgCl2, 0.01% Triton X-100, 0.01% BSA, 2 mM DTT, 0.6 nM AKT1 E17K, 50 nM Ulight™-CREBtide and either 50 μM ATP or 2 mM ATP. The compound solution was prepared as 10 mM DMSO stock. For the assay, a 1.3 serial dilution 10-pt dose response of test compounds, in duplicate, for each concentration were dispensed into a 384-well plate (Corning, catalog number 4513). Final DMSO concentration in the assay was 1%. The enzyme mixture (5 μL, 1.2 nM) were added and the mixture was incubated for 15 min at RT prior to the start of the kinase reaction by the addition of 5 μL substrate mixture (100 nM Ulight™-CREBtide). The reaction was stopped after 60 min of incubation at RT by the addition of 10 μL of Detection Mix (PerkinElmer, #CR97-100) consisting of Europium-anti-phospho-CREB (Ser133) (Perkin Elmer, catalog number TRF0200). Incubation with the detection mix for a further 60 min allowed binding of antibody to the phospho-Ulight™ CREBtide. The fluorescence emissions at 620 nm and 665 nm after excitation at 350 nm was measured using Envision reader. The ratio of the emissions at 665 nm and at 620 nm provided the measure for the amount of phosphorylated CREBtide product of AKT1 E17K kinase activity. To determine the IC50 values, the data was normalized (enzyme reaction without inhibitor=0% inhibition, all other assay components but no enzyme=100% inhibition) and IC50 values were calculated by a 4-parameter fit using an in-house developed protocol.
Table 9 assigns each compound a code for potency in the AKT1 E 17K kinase assay: A, B, or C. According to the code, A represents an IC50 value <500 nM; B represents an IC50 value from ≥500 nM to <2000 nM; and C represents an IC50 value ≥2000 nM.
On the technique in general: In TR-FRET formats the signal depends on donor and acceptor labels being close together.

Experiment [2] concerns the target T2, human recombinant kinase full-length wildtype AKT1 (Homo sapiens, UniProt P31749).
T2 construct: Purified human recombinant kinase full-length wildtype AKT1 was expressed in insect cells; made in house; host or cells: insect cells
In words: AKT1 kinase assay (wildtype, TR-FRET, Lance). The experiment is classed as biochemical. The conditions noted are these: 0.6 nM wildtype AKT1, 50 nM Ulight-CREBtide, either 50 μM ATP or 2 mM ATP, 60 min at RT. On the procedure:
AKT1 kinase assay: Inhibitory effects of compounds on wildtype AKT1 were undertaken in a 10-pt dose response kinase activity assay measuring phospho-peptide product formation based on TR-FRET signal as described in the following paragraph.
as §1, with “full-length wildtype” for “full-length”, “AKT1” for “AKT1 E17K”, “AKT1,50” for “AKT1 E17K, 50”, “1:3” for “1.3”
The symbol +++ represents an IC50 value <20 μM; the symbol ++ represents an IC50 value from ≥20 μM to 80 μM.

T1 sequence (P31749 whole entry E17K): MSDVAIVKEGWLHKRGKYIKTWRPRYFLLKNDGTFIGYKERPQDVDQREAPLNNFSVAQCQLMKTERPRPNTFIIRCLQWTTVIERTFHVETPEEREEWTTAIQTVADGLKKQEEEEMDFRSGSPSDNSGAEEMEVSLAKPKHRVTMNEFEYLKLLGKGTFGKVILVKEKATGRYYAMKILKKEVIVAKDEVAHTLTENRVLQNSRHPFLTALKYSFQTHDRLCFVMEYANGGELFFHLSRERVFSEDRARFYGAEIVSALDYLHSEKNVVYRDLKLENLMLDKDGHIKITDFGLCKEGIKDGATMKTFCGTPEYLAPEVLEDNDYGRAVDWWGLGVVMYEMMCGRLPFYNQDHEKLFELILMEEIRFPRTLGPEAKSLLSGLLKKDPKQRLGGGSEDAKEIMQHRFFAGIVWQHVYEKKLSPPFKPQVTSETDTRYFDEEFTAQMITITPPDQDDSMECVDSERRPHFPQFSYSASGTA
T2 sequence (P31749 whole entry): as the sequence (P31749 whole entry E17K) above, with K17E counted along it

A word on the IC50: it is the concentration needed to halve the response being measured. Take `Nc1ncccc1-c1nc2ccc(-c3ccccc3)nc2n1-c1ccc(N[C@H]2CC[C@H](C(=O)O)CC2)nc1` (single isomer, unassigned) [Compound I-14, (1r,4r)-4-((5-(2-(2-aminopyridin-3-yl)-5-phenyl-3H-imidazo[4,5-b]pyridin-3-yl)pyridin-2-yl)amino)cyclohexane-1-carboxylic acid]: the IC50 was at least 2 µM in experiment [1] and below 20 µM in experiment [2].

As for `Nc1ncccc1-c1nc2ccc(-c3ccccc3)nc2n1-c1ccc(N[C@H]2CC[C@@H](C(=O)O)CC2)nc1` (single isomer, unassigned) [Compound I-15, (1s,4s)-4-((5-(2-(2-aminopyridin-3-yl)-5-phenyl-3H-imidazo[4,5-b]pyridin-3-yl)pyridin-2-yl)amino)cyclohexane-1-carboxylic acid], the IC50 in experiment [1] is at least 2 µM; in experiment [2] it was below 20 µM.

As for `Nc1ncccc1-c1nc2ccc(-c3ccccc3)nc2n1-c1ccc(CN(CC(F)(F)F)[C@H]2CC[C@H](C(=O)O)CC2)cc1` (single isomer, unassigned) [Compound I-188, (1r,4r)-4-((4-(2-(2-aminopyridin-3-yl)-5-phenyl-3H-imidazo[4,5-b]pyridin-3-yl)benzyl)(2,2,2-trifluoroethyl)amino)cyclohexane-1-carboxylic acid], the IC50 in experiment [1] was at least 2 µM; in experiment [2] it was below 20 µM.

Regarding `Nc1ncccc1-c1nc2ccc(-c3ccccc3)nc2n1-c1ccc(CN(CC(F)(F)F)[C@H]2CC[C@@H](C(=O)O)CC2)cc1` (single isomer, unassigned) [Compound I-189, (1s,4s)-4-((4-(2-(2-aminopyridin-3-yl)-5-phenyl-3H-imidazo[4,5-b]pyridin-3-yl)benzyl)(2,2,2-trifluoroethyl)amino)cyclohexane-1-carboxylic acid], the IC50 in experiment [1] was at least 2 µM; in experiment [2] it was below 20 µM.

Turning to `Nc1ncccc1-c1nc2ccc(-c3ccccc3F)nc2n1-c1ccc([C@H]2CCN(C[C@H]3CC[C@@H](C(=O)O)CC3)C2)cc1` (single isomer, unassigned) [Compound I-228], the IC50 in experiment [1] is 0.5 to 2 µM; in experiment [2] it was below 20 µM.

Consider `Nc1ncccc1-c1nc2ccc(-c3ccccc3F)nc2n1-c1ccc([C@@H]2CCN(C[C@H]3CC[C@@H](C(=O)O)CC3)C2)cc1` (single isomer, unassigned) [Compound I-229], for which the IC50 was 0.5 to 2 µM in experiment [1] and below 20 µM in experiment [2].

Take `Nc1ncccc1-c1nc2ccc(-c3ccccc3F)nc2n1-c1ccc([C@H]2CCN(C[C@H]3CC[C@H](C(=O)O)CC3)C2)cc1` (single isomer, unassigned) [Compound I-230]: the IC50 in experiment [1] was 0.5 to 2 µM; in experiment [2], below 20 µM.

For `Nc1ncccc1-c1nc2ccc(-c3ccccc3F)nc2n1-c1ccc([C@@H]2CCN(C[C@H]3CC[C@H](C(=O)O)CC3)C2)cc1` (single isomer, unassigned) [Compound I-231], the figures for the IC50 in experiment [1] and in experiment [2] were below 0.5 µM and below 20 µM, respectively.

For `Nc1ncccc1-c1nc2ccc(-c3ccccc3)nc2n1-c1ccc([C@H]2CCN(C[C@H]3CC[C@H](C(=O)O)CC3)C2)cc1` (single isomer, unassigned) [Compound I-232], the IC50 is 0.5 to 2 µM in experiment [1] and below 20 µM in experiment [2].

For `Nc1ncccc1-c1nc2ccc(-c3ccccc3)nc2n1-c1ccc([C@@H]2CCN(C[C@H]3CC[C@H](C(=O)O)CC3)C2)cc1` (single isomer, unassigned) [Compound I-233], the IC50 in experiment [1] is below 0.5 µM; in experiment [2] it was below 20 µM.

Take `CC1(C)C[C@H](C(=O)O)CC[C@@H]1CN1CC(c2ccc(-n3c(-c4cccnc4N)nc4ccc(-c5ccccc5)nc43)cc2)C1` (stereo in doubt) [Compound I-144]: the figures for the IC50 in experiment [1] and in experiment [2] were below 0.5 µM and below 20 µM, respectively.

Regarding `CC1(C)C[C@@H](C(=O)O)CC[C@@H]1CN1CC(c2ccc(-n3c(-c4cccnc4N)nc4ccc(-c5ccccc5)nc43)cc2)C1` (stereo in doubt) [Compound I-145], the IC50 is 0.5 to 2 µM in experiment [1] and below 20 µM in experiment [2].
